# How the values were obtained:
# [1] = Solubility of the compound in physiological solution by UV spectrophotometric analysis; format: physicochemical
# [2] = Solubility of the compound in phosphate buffer at pH 7.4 by UV spectrophotometric analysis; format: physicochemical
# [3] = Drug metabolism in human plasma after 4 hrs by UPLC-UV/PAD method; format: ADME, cell-free; settings: read-out: Drug metabolism
# [4] = Half life in human liver S9 fraction by UPLC-UV-PAD method in presence of NADPH; format: ADME, subcellular
# [5] = system: Blood; test: Metabolic stability in rat blood after 4 hrs by UPLC-UV/PAD method; format: ADME, tissue-based
# [6] = Drug metabolism in human liver S9 fraction assessed as oxidative metabolism after 4 hrs by UPLC-UV-PAD method in presence of NADPH; format: ADME, subcellular; settings: read-out: Drug metabolism
# [7] = Drug metabolism in dog plasma after 4 hrs by UPLC-UV/PAD method; format: ADME, cell-free, Canis lupus familiaris; settings: read-out: Drug metabolism
# [8] = system: Blood; test: Metabolic stability in mouse blood after 4 hrs by UPLC-UV/PAD method; format: ADME, tissue-based
# [9] = Drug metabolism in rat plasma after 4 hrs by UPLC-UV/PAD method; format: ADME, cell-free; settings: read-out: Drug metabolism
# [10] = Half life in rat liver S9 fraction by UPLC-UV-PAD method in presence of NADPH; format: ADME, subcellular
# [11] = Solubility of the compound in water by UV spectrophotometric analysis; format: physicochemical
# [12] = Drug metabolism in human liver S9 fraction assessed as non-oxidative metabolism after 4 hrs by UPLC-UV-PAD method; format: ADME, subcellular; settings: read-out: Drug metabolism
# [13] = Drug metabolism in rat liver S9 fraction assessed as non-oxidative metabolism after 4 hrs by UPLC-UV-PAD method; format: ADME, subcellular; settings: read-out: Drug metabolism
# [14] = Drug metabolism in rat liver S9 fraction assessed as oxidative metabolism after 4 hrs by UPLC-UV-PAD method in presence of NADPH; format: ADME, subcellular; settings: read-out: Drug metabolism
compound,measurement,setting,value
CC(CCN1CCCCC1)c1ccc(-c2ccccc2)cc1.Cl (racemic),solubility,[1],8 mg/mL
same,solubility,[2],32 mg/mL
same,metabolised at 4 h,[3],6%
same,half-life,[4],2.17 h
same,Stability,[5],Stable
same,metabolised at 4 h,[6],69%
same,metabolised at 4 h,[7],25%
same,Stability,[8],Stable
same,metabolised at 4 h,[9],6%
same,half-life,[10],1.89 h
same,solubility,[11],33 mg/mL
same,metabolised at 4 h,[12],30%
same,metabolised at 4 h,[13],30%
same,metabolised at 4 h,[14],65%

# Reference: ChEMBL document CHEMBL2375272, “Identification of RC-33 as a potent and selective σ1 receptor agonist potentiating NGF-induced neurite outgrowth in PC12 cells. Part 2: g-scale synthesis, physicochemical characterization and in vitro metabolic stability” (Bioorg Med Chem, 2013)
